Experimental data published in patent US8758781B2, “Tissue scaffolds derived from forestomach extracellular matrix” (Mesynthes Ltd., priority 2008, dated 2014).

Columns and labels:
S. aureus = test: Anti-microbial zone of inhibition on Mueller-Hinton agar; format: cell-based; set-up: key: ‘+++’ indicates a bioactivity comparable to the positive control; ‘−’ indicates no bioactivity; details: positive control, solution on sterile filter paper disc
Description: Plates of Mueller-Hinton agar were prepared and streaked with 100 μL of 10^8 S. aureus and left to dry for 5-10 minutes. Using sterile technique, discs were transferred to the plates and the plates incubated for 24 hours at 35° C. After 24 hours, plates were digitally imaged and the anti-microbial zone of inhibition around each of the discs was scored relative to the positive control.

PC12 cells = test: PC12 cell differentiation by growth factor released from laminates; format: cell-based; details: growth factor solution control (50 ng/disc); 48 hours
Description: Specifically, a collagen gel was prepared as described in Example 3. Once formed the gel was spiked with either human recombinant FGF2 or NGF. Sterile FM scaffold sheets were cut to 8 mm discs, and growth factor spiked collagen gel (10 μL) was applied to one surface. A second FM scaffold disc was applied to the collagen layer to create a laminate sandwich (i.e., FM scaffold/bioactive collagen polymer/FM scaffold). The bioactive FM scaffold laminates were dehydrated at 25° C. for 2 hours to yield a bonded laminate. The FM laminates were produced with FGF2 or NGF at either 0, 250 or 500 ng/disc. The bioactive FM scaffolds were incubated at 37° C. for 24 hours in DMEM (1 mL) to extract the bound growth factor prior to application to a cell monolayer. PC12 cells were seeded onto 24-well plates at 20 k cells/well in DMEM (1 mL) and incubated for 24 hours at 37° C. Media was removed from the cells and replaced with DMEM (1 mL) that had been incubated with the bioactive FM scaffold laminates. Positive control cells were treated with a solution of either FGF2 or NGF at 50 ng/mL final concentration. Cells were incubated for 48 hours. […] Total cells were counted per frame, as well as the total number of cell processes per frame. […] Growth factor stimulated cell differentiation was expressed as the number of cell processes per cell per frame. Results are expressed as Table 19. […]

[1] = tested on: PI-3: Parainfluenza virus type 3 (Paramyxoviridae); details: 0.3% PAA/5% Ethanol in PBS
Description: (§1) A study was undertaken to examine viral inactivation during the STOF processes and PAA treatment using three model viruses.
(§2) The level of viral inactivation was tested using a scaled-down manufacturing process. This involved spiking high-titre viral stocks of each of the three model viruses into samples representing two different stages of the manufacturing process, and subjecting these spiked samples to a treatment analogous to the corresponding manufacturing step. The level of virus inactivation during each treatment was determined by comparing the viral titres recovered from the spiked samples after each treatment, with viral recovery from untreated samples.
(§3) The model viruses were chosen to include viruses with different physio-chemical characteristics, such as the presence or absence of envelope, type of nucleic acid genome (DNA or RNA) and survival in the environment/resistance to disinfection (Table 22). The amount of infectious virus present in samples was determined by end-point titration and viral titres were expressed as tissue culture infective dose, 50% (TCID50).

[2] = tested on: BEV: Bovine enterovirus (Picornaviridae); test: Viral inactivation in scaled-down manufacturing process; details: 0.3% PAA/5% Ethanol in PBS
Description: as §1, §2, §3

[3] = tested on: FHV-1: Felid herpesvirus type 1 (Herpesviridae); test: as above; details: 0.3% PAA/5% Ethanol in PBS
Description: as §1, §2, §3

C[C@H]1c2cccc(O)c2C(=O)C2=C(O)[C@]3(O)C(=O)C(C(N)=O)=C(O)[C@@H](N(C)C)[C@@H]3[C@@H](O)[C@@H]21 [Doxycycline]
Antibacterial score (S. aureus; 30 μg/disc): +++

rhNGF: NGF solution, positive control
Relative cell response (cell processes per cell per frame) (PC12 cells): 0.73 ± 0.01

CC(=O)OO [PAA, peracetic acid]
PAA Inactivation [1]: ≧2.3 log TCID50
PAA Inactivation [2]: 7.3 log TCID50
PAA Inactivation [3]: ≧2.6 log TCID50

rhFGF2: human recombinant FGF2 solution, positive control
Relative cell response (cell processes per cell per frame) (PC12 cells): 0.72 ± 0.02

poly-L-lysine
Antibacterial score (S. aureus; 5 μg/disc): +++
